Source: ChEMBL document CHEMBL2010767, “Agonists for the Chemokine Receptor CXCR4” (ACS Med Chem Lett, 2011)
pIC50: −log10 of the molar value. Calls of active or inactive are those of the source. The rule behind the calls is not given here.

Columns and labels:
[1] = target: T1, C-X-C chemokine receptor type 4 (Homo sapiens, UniProt P61073); test: Agonist activity at CXCR4 receptor in human REH cells assessed as induction of chemotactic migration at 10 to 100 nM after 3 hrs; type: functional, cell-based
[2] = target: T1, C-X-C chemokine receptor type 4; test: Displacement of [125I]-SDF-1alpha from human CXCR4 receptor expressed in HEK293 cells after 1 hr by gamma counting; type: cell-based
[3] = target: T1, C-X-C chemokine receptor type 4; test: Agonist activity at CXCR4 receptor in human REH cells assessed as induction of chemotactic migration at 10 nM after 3 hrs; type: functional, cell-based
[4] = target: T1, C-X-C chemokine receptor type 4; test: Agonist activity at CXCR4 receptor in human REH cells assessed as induction of chemotactic migration at 1 uM after 3 hrs; type: functional, cell-based
[5] = target: T1, C-X-C chemokine receptor type 4; test: Antagonist activity at CXCR4 receptor in human REH cells assessed as inhibition of SDF-1alpha-induced chemotactic migration after 3 hrs; type: functional, cell-based

T1 sequence (P61073 whole entry): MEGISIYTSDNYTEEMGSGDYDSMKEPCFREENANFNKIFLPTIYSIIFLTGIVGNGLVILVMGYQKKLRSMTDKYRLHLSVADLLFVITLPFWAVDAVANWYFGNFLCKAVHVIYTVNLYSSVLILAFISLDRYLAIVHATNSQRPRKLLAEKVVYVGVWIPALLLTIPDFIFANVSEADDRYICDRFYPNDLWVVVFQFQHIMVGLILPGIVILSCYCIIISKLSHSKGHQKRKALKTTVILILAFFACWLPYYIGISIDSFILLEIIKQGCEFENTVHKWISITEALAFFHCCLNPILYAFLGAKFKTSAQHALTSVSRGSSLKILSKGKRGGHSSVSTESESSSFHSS

Row | SMILES | pIC50 [2] | Activity [3] | other results
1 | CC(C)C[C@H](NC(=O)[C@H](CO)NC(=O)[C@@H](NC(=O)[C@@H]1CCCN1C(=O)[C@@H](N)CCCCN)C(C)C)C(=O)N[C@@H](CO)C(=O)N[C@@H](Cc1ccc(O)cc1)C(=O)N[C@@H](CCCNC(=N)N)C(=O)N[C@@H](CO)C(=O)N1CCC[C@H]1C(=O)NCCCC[C@H](NC(=O)[C@@H]1CSSC[C@H](NC(=O)[C@H](Cc2ccc3ccccc3c2)NC(=O)[C@H](CCCNC(=N)N)NC(=O)[C@@H](N)CCCNC(=N)N)C(=O)N[C@@H](Cc2ccc(O)cc2)C(=O)N[C@@H](CCCNC(=N)N)C(=O)N[C@@H](CCCCN)C(=O)N[C@H](CCCCN)C(=O)N2CCC[C@H]2C(=O)N[C@@H](Cc2ccc(O)cc2)C(=O)N[C@@H](CCCNC(=N)N)C(=O)N[C@@H](CCCNC(=N)N)C(=O)C1)C(=O)O | 8.02 |  | Activity [1]: Active
2 | CC(C)C[C@H](NC(=O)[C@H](CO)NC(=O)[C@@H](NC(=O)[C@@H]1CCCN1C(=O)[C@@H](N)CCCCN)C(C)C)C(=O)N[C@@H](CO)C(=O)N[C@@H](Cc1ccc(O)cc1)C(=O)N[C@@H](CCCNC(=N)N)C(=O)N[C@@H](CO)C(=O)N[C@@H](C)C(=O)NCCCC[C@H](NC(=O)[C@@H]1CSSC[C@H](NC(=O)[C@H](Cc2ccc3ccccc3c2)NC(=O)[C@H](CCCNC(=N)N)NC(=O)[C@@H](N)CCCNC(=N)N)C(=O)N[C@@H](Cc2ccc(O)cc2)C(=O)N[C@@H](CCCNC(=N)N)C(=O)N[C@@H](CCCCN)C(=O)N[C@H](CCCCN)C(=O)N2CCC[C@H]2C(=O)N[C@@H](Cc2ccc(O)cc2)C(=O)N[C@@H](CCCNC(=N)N)C(=O)N[C@@H](CCCNC(=N)N)C(=O)C1)C(=O)O |  | Active | 
3 | CC(C)C[C@H](NC(=O)[C@H](CO)NC(=O)[C@@H](NC(=O)[C@@H]1CCCN1C(=O)[C@@H](N)CCCCN)C(C)C)C(=O)N[C@@H](CO)C(=O)N[C@@H](Cc1ccc(O)cc1)C(=O)NCCCC[C@@H](NC(=O)[C@@H]1CSSC[C@H](NC(=O)[C@H](Cc2ccc3ccccc3c2)NC(=O)[C@H](CCCNC(=N)N)NC(=O)[C@@H](N)CCCNC(=N)N)C(=O)N[C@@H](Cc2ccc(O)cc2)C(=O)N[C@@H](CCCNC(=N)N)C(=O)N[C@@H](CCCCN)C(=O)N[C@H](CCCCN)C(=O)N2CCC[C@H]2C(=O)N[C@@H](Cc2ccc(O)cc2)C(=O)N[C@@H](CCCNC(=N)N)C(=O)N[C@@H](CCCNC(N)=O)C(=O)C1)C(=O)O |  |  | Activity [4]: Active; pIC50 ([2]; hek293): 6.77
4 | CC(C)C[C@H](NC(=O)[C@H](CO)NC(=O)[C@@H](NC(=O)[C@@H]1CCCN1C(=O)[C@@H](N)CCCCN)C(C)C)C(=O)N[C@@H](CO)C(=O)N[C@@H](Cc1ccc(O)cc1)C(=O)N[C@@H](CCCNC(=N)N)C(=O)NCCCC[C@@H]1NC(=O)[C@H](CCCNC(=N)N)NC(=O)[C@H](Cc2ccc(O)cc2)NC(=O)[C@@H]2CCCN2C(=O)[C@@H](CCCCN)NC(=O)[C@H](CCCCN)NC(=O)[C@H](CCCNC(=N)N)NC(=O)[C@H](Cc2ccc(O)cc2)NC(=O)[C@@H](NC(=O)[C@H](Cc2ccc3ccccc3c2)NC(=O)[C@H](CCCNC(=N)N)NC(=O)[C@@H](N)CCCNC(=N)N)CSSC[C@@H](C(=O)N[C@@H](CCCNC(=N)N)C(=O)O)CC1=O |  |  | Activity [5]: Active
5 | CC(C)C[C@H](NC(=O)[C@H](CO)NC(=O)[C@@H](NC(=O)[C@@H]1CCCN1C(=O)[C@@H](N)CCCCN)C(C)C)C(=O)N[C@@H](CO)C(=O)N[C@@H](Cc1ccc(O)cc1)C(=O)N[C@@H](CCCNC(=N)N)C(=O)N[C@@H](CO)C(=O)NCCCC[C@H](NC(=O)[C@@H]1CSSC[C@H](NC(=O)[C@H](Cc2ccc3ccccc3c2)NC(=O)[C@H](CCCNC(=N)N)NC(=O)[C@@H](N)CCCNC(=N)N)C(=O)N[C@@H](Cc2ccc(O)cc2)C(=O)N[C@@H](CCCNC(=N)N)C(=O)N[C@@H](CCCCN)C(=O)N[C@H](CCCCN)C(=O)N2CCC[C@H]2C(=O)N[C@@H](Cc2ccc(O)cc2)C(=O)N[C@@H](CCCNC(=N)N)C(=O)N[C@@H](CCCNC(=N)N)C(=O)C1)C(=O)O |  | Active | 

The next lines start with results.

Row | pIC50 [2] | Activity [3] | SMILES | other results
6 | 7.41 | Active | CC(C)C[C@H](NC(=O)[C@H](CO)NC(=O)[C@@H](NC(=O)[C@@H]1CCCN1C(=O)[C@@H](N)CCCCN)C(C)C)C(=O)N[C@@H](CO)C(=O)N[C@@H](Cc1ccc(O)cc1)C(=O)NCCCC[C@H](NC(=O)[C@@H]1CSSC[C@H](NC(=O)[C@H](Cc2ccc3ccccc3c2)NC(=O)[C@H](CCCNC(=N)N)NC(=O)[C@@H](N)CCCNC(=N)N)C(=O)N[C@@H](Cc2ccc(O)cc2)C(=O)N[C@@H](CCCNC(=N)N)C(=O)N[C@@H](CCCCN)C(=O)N[C@H](CCCCN)C(=O)N2CCC[C@H]2C(=O)N[C@@H](Cc2ccc(O)cc2)C(=O)N[C@@H](CCCNC(=N)N)C(=O)N[C@@H](CCCNC(=N)N)C(=O)C1)C(=O)O | 
7 | 8.65 |  | CC(C)C[C@H](NC(=O)[C@H](CO)NC(=O)[C@@H](NC(=O)[C@@H]1CCCN1C(=O)[C@@H](N)CCCCN)C(C)C)C(=O)N[C@@H](CO)C(=O)N[C@@H](Cc1ccc(O)cc1)C(=O)NCCCC[C@@H]1NC(=O)[C@H](CCCNC(=N)N)NC(=O)[C@H](Cc2ccc(O)cc2)NC(=O)[C@@H]2CCCN2C(=O)[C@@H](CCCCN)NC(=O)[C@H](CCCCN)NC(=O)[C@H](CCCNC(=N)N)NC(=O)[C@H](Cc2ccc(O)cc2)NC(=O)[C@@H](NC(=O)[C@H](Cc2ccc3ccccc3c2)NC(=O)[C@H](CCCNC(=N)N)NC(=O)[C@@H](N)CCCNC(=N)N)CSSC[C@@H](C(=O)N[C@@H](CCCNC(=N)N)C(=O)O)CC1=O | Activity [5]: Active
